Measured values published in PMC7400446, “Antimicrobial and Antifungal Activity of Rare Substituted 1,2,3-Thiaselenazoles and Corresponding Matched Pair 1,2,3-Dithiazoles” (Antibiotics, 2020).
≈ marks a conversion by molar mass, not a printed value. Entries after “also recorded” stand apart in the source; their conditions may differ.

What was measured:
K562 = tested on: K562; set-up: method as in PMID 19036587, PMID 23010140, PMID 28709952; details: cited from earlier work
L1210 = tested on: L1210; set-up: method as in PMID 19036587, PMID 23010140, PMID 28709952; details: cited from earlier work
[1] = Cytotoxicity assay (resazurin); type: cell-based; details: human; HEK293 cells, 20 h; unit not given in Table 1; read-out: CC50 (concentration at 50% cytotoxicity)
Description: (§1) HEK293 cells were counted manually in a Neubauer haemocytometer and then plated in the 384-well plates containing the compounds to give a density of 6000 cells/well in a final volume of 50 μL. DMEM supplemented with 10% FBS was used as growth media and the cells were incubated together with the compounds for 20 h at 37 °C in 5% CO2. Analysis: Cytotoxicity (or cell viability) was measured by fluorescence, ex: 560/10 nm, em: 590/10 nm (F560/590), after addition of 5 μL of 25 μgmL^−1 Resazurin (2.3 μgmL^−1 final concentration) and after incubation for further 3h at 37 °C in 5% CO2. The fluorescence intensity was measured using a Tecan M1000 Pro monochromator plate reader, using automatic gain calculation CC50 (concentration at 50% cytotoxicity) were calculated by curve fitting the inhibition values vs. log(concentration) using sigmoidal dose-response function, with variable fitting values for bottom, top and slope.

[2] = tested on: S. aureus (Strain ATCC 43300, MRSA); experiment: Antibacterial assay, MIC; type: cell-based, Staphylococcus aureus; details: for MIC: Staphylococcus aureus
Description: (§2) All bacteria, S. aureus (Strain ATCC 43300, MRSA), E. coli (Strain ATCC 25922, FDA control strain), K. pneumoniae (Strain ATCC 700603, MDR), A. baumannii (Strain ATCC 19606, Type strain), P. aeruginosa (Strain ATCC 27853, Quality control strain), were cultured in Cation-adjusted Mueller Hinton broth (CAMHB) at 37 °C overnight. A sample of each culture was then diluted 40-fold in fresh broth and incubated at 37 °C for 1.5–3 h. The resultant mid-log phase cultures were diluted (CFU/mL measured by OD600), then added to each well of the compound containing plates, giving a cell density of 5 × 10^5 CFU/mL and a total volume of 50 μL. All the plates were covered and incubated at 37 °C for 18 h without shaking.
(§3) Analysis: Inhibition of bacterial growth was determined measuring absorbance at 600 nm (OD600), using a Tecan M1000 Pro monochromator plate reader. The percentage of growth inhibition was calculated for each well, using the negative control (media only) and positive control (bacteria without inhibitors) on the same plate as references. […]

[3] = tested on: C. neoformans (Strain ATCC 208821, H99 Type strain); experiment: Antifungal assay, MIC; type: cell-based, Cryptococcus neoformans var. grubii; details: for MIC: Cryptococcus neoformans, ATCC208821
Description: (§4) Fungi strains C. albicans (Strain ATCC 90028, CLSI reference) and C. neoformans (Strain ATCC 208821, H99 Type strain), were cultured for 3 days on Yeast Extract-Peptone Dextrose (YPD) agar at 30 °C. A yeast suspension of 1 × 10^6 to 5 × 10^6 CFU/mL (as determined by OD530) was prepared from five colonies. The suspension was subsequently diluted and added to each well of the compound-containing plates giving a final cell density of fungi suspension of 2.5 × 10^3 CFU/mL and a total volume of 50 μL. All plates were covered and incubated at 35 °C for 36 h without shaking.
(§5) Analysis: Growth inhibition of C. albicans was determined measuring absorbance at 630 nm (OD630), while the growth inhibition of C. neoformans was determined measuring the difference in absorbance between 600 and 570 nm (OD600–570), after the addition of resazurin (0.001% final concentration) and incubation at 35 °C for 2 h. The absorbance was measured using a Biotek Multiflo Synergy HTX plate reader. In both cases, the percentage of growth inhibition was calculated for each well, using the negative control (media only) and positive control (fungi without inhibitors) on the same plate. […] Due to a higher variance in growth and inhibition, a lower threshold was applied to the data for C. neoformans.

haemolytic activity = experiment: Haemolysis assay; type: cell-based; details: for Hc10 (concentration at 10% haemolytic activity): unit not given
Description: Hc10 (concentration at 10% haemolytic activity) was calculated by curve fitting the inhibition values vs. log(concentration) using a Sigmoidal dose-response function, with variable values for bottom, top and slope. The curve fitting is implemented using Pipeline Pilot’s dose-response component (giving similar results to similar tools such as GraphPad’s Prism and IDBS’s XlFit). […] DMax represents the highest percentage inhibition response for all concentrations tested. […] In addition, the value indicates if samples have been active, but curve fitting failed, mostly because only the single highest concentration was active.

[4] = tested on: C. albicans (Strain ATCC 90028, CLSI reference); experiment: Antifungal assay, MIC; type: cell-based, Candida albicans; details: for MIC: Candida albicans, ATCC90028
Description: as §4, §5

[5] = tested on: A. baumannii (Strain ATCC 19606, Type strain); experiment: Antibacterial assay, MIC; type: cell-based, Acinetobacter baumannii; details: for MIC: Acinetobacter baumannii, ATCC19606
Description: as §2, §3

[6] = tested on: Staphylococcus aureus, Acinetobacter baumannii, Candida albicans and Cryptococcus neoformans var. grubii; experiment: Initial antimicrobial screen (CO-ADD); type: cell-based; details: 10 μM; Active / Inactive
Description: We then screened this series of 1,2,3-dithiazoles and 1,2,3-thiaselenazoles (8−15) against Staphylococcus aureus, Acinetobacter baumannii, Candida albicans and Cryptococcus neoformans var. grubii (Table 1) as part of the Community for Antimicrobial Drug Discovery (CO-ADD) initiative to develop new lead compounds [51]. These represent three distinct classes of microbes. Staphylococcus aureus (ATCC 43300) is a gram-positive bacterium derived from the super bug methicillin-resistant Staphylococcus aureus (MRSA). Acinetobacter baumannii (ATCC 19606) is a gram-negative bacterium hospital-derived infection with very few antibiotics that can treat this pathogen. Candida albicans (ATCC 90028) and Cryptococcus neoformans var. grubii (ATCC 208821) are both opportunistic fungi. These fungal pathogens are particularly dangerous for patients in hospital with immunodeficiencies, undergoing cancer chemotherapy and organ transplantation. These strains are considered by the World Health Organization (WHO) to be the highest priority to develop novel antibiotics for control of these bacteria and fungi. These are some of the most difficult to treat, particularly in a hospital setting where sepsis and pneumonia can quickly overcome the body’s immune system.
The 1,2,3-thiaselenazole analog (13) was potent on against three of the four pathogens with a similar profile to 9a without the activity on A. baumannii.
Antimicrobial screening was performed by CO-ADD (The Community for Antimicrobial Drug Discovery), Australia.
as §2, §3
as §4, with “shaking. […]” for “shaking.”

HEK293 cells = experiment: Cytotoxicity assay (resazurin); type: cell-based
Description: as §1

[7] = ATCC 43300 (MRSA), MIC = lowest concentration with inhibition ≥80%
[8] = ATCC 208821, inhibition ≥70% (method)
[9] = ATCC 19606, MIC = lowest concentration with inhibition ≥80%

| Molecule | CC50 at 20 h [1] | MIC [2, 7] | MIC [3, 8] | Hc10 (concentration at 10% haemolytic activity) (haemolytic activity) | MIC ([4]; ATCC 90028, inhibition ≥80%) | melting point | MIC [5, 9] | Initial Screen [6] | Activity against C. albicans (in words) [4] | further results |
| --- | --- | --- | --- | --- | --- | --- | --- | --- | --- | --- |
| N#Cc1cnn(CCc2ccccc2)c1/N=c1/ssnc1Cl [Compound 1] |  |  |  |  |  |  |  |  |  | IC50 (K562): 3 µM; IC50 (L1210): 5 µM |
| N#Cc1c2n[se]sc-2c(Cl)c1Cl [Compound 11b, 5,6-Dichlorocyclopenta[d][1,2,3]thiaselenazole-4-carbonitrile] | > 32 µg/mL | ≤ 0.25 µg/mL | ≤ 0.25 µg/mL | >32 | ≤ 0.25 µg/mL | 171 to 173 °C | > 32 µg/mL |  |  | Activity against S. aureus (in words) [2]: potent |
| Clc1c2nssc-2c(Cl)c1Cl [Compound 10a, 4,5,6-Trichlorocyclopenta[d][1,2,3]dithiazole] |  |  |  |  |  | 122 to 124 °C |  | Inactive |  |  |
| ClC1=C2SSN=C2c2ccccc2C(Cl)=C1Cl [Compound 12, 4,5,6-Trichlorobenzo[6,7]cyclohepta[1,2-d][1,2,3]dithiazole] |  |  |  |  |  | 119 to 121 °C |  | Inactive |  |  |
| 8-Chloroindeno[1,2-d][1,2,3]thiaselenazole [Compound 9a] |  |  |  | >32 |  |  |  |  |  | CC50 (concentration at 50% cytotoxicity) (HEK293 cells; 20 h, unit not given in Table 1): >32 µM; Antibacterial S. aureus MIC [2, 7]: >32 µg/mL; Antifungal C. neoformans MIC [3, 8]: ≤0.25 µg/mL; Antifungal C. albicans MIC ([4]; ATCC 90028, inhibition ≥80%): ≤0.25 µg/mL; Antibacterial A. baumannii MIC [5, 9]: >32 µg/mL |
| CCOC(=O)c1c2n[se]sc-2c(Cl)c1Cl [Compound 11c, Ethyl 5,6-dichlorocyclopenta[d][1,2,3]thiaselenazole-4-carboxylate] | 7 µg/mL (≈ 21.3 µM) | ≤ 0.25 µg/mL | ≤ 0.25 µg/mL | >32 | ≤ 0.25 µg/mL | 188 to 190 °C | > 32 µg/mL |  |  | Haemolysis (in words) (haemolytic activity): no haemolysis |
| N#Cc1c2nssc-2c(Cl)c1Cl [Compound 10b, 5,6-Dichlorocyclopenta[1,2,3]dithiazole-4-carbonitrile] | > 32 µg/mL | > 32 µg/mL | ≤ 0.25 µg/mL | >32 | ≤ 0.25 µg/mL | 217 to 219 °C | > 32 µg/mL |  | maintained activity | Toxicity (in words) (HEK293 cells): no toxicity; Activity against S. aureus (in words) [2]: removed all activity; Activity against C. neoformans (in words) [3]: maintained activity; Activity against A. baumannii (in words) [5]: removed all activity |
| CCOC(=O)c1c2nssc-2c(Cl)c1Cl [Compound 10c, Ethyl 5,6-dichlorocyclopenta[d][1,2,3]dithiazole-4-carboxylate] | > 32 µg/mL | > 32 µg/mL | > 32 µg/mL | >32 | ≤ 0.25 µg/mL | 80 to 82 °C | > 32 µg/mL |  | selective for C. albicans | Toxicity (in words) (HEK293 cells): no toxicity |
| c1ccc2c(c1)N=C1S[Se]N=C1O2 [Compound 15, Benzo[b][1,2,3]thiaselenazolo[5,4-e][1,4]oxazine] | > 32 µg/mL | > 32 µg/mL | 2 µg/mL | >32 | ≤ 0.25 µg/mL | 178 to 180 °C | > 32 µg/mL |  | recovered some antifungal activity | Toxicity (in words) (HEK293 cells): no toxicity; Activity against C. neoformans (in words) [3]: recovered some antifungal activity |
| c1ccc2c(c1)N=C1SSN=C1O2 [Compound 14, Benzo[b][1,2,3]dithiazolo[5,4-e][1,4]oxazine] |  |  |  |  |  | 182 to 184 °C |  | not fruitful; also recorded: Inactive |  |  |
| ClC1=C2S[Se]N=C2c2ccccc2C(Cl)=C1Cl [Compound 13, 4,5,6-Trichlorobenzo[6,7]cyclohepta[1,2-d][1,2,3]thiaselenazole] | 0.48 µg/mL (≈ 1.31 µM) | ≤ 0.25 µg/mL | ≤ 0.25 µg/mL | >32 | ≤ 0.25 µg/mL | 144 to 145 °C | > 32 µg/mL |  |  |  |
| 8-Phenylindeno[1,2-d][1,2,3]thiaselenazole [Compound 9b] |  |  |  |  |  |  |  | Inactive |  |  |
| c1ccc(-c2c3ssnc-3c3ccccc23)cc1 [Compound 8a] |  |  |  |  |  |  |  | Inactive | antifungal selective | Toxicity (in words) (HEK293 cells): no toxicity or haemolysis; Activity against C. neoformans (in words) [3]: antifungal selective; Haemolysis (in words) (haemolytic activity): no toxicity or haemolysis |
| Clc1c2n[se]sc-2c(Cl)c1Cl [Compound 11a, 4,5,6-Trichlorocyclopenta[d][1,2,3]thiaselenazole] | 0.52 µg/mL (≈ 1.78 µM) | ≤ 0.25 µg/mL | ≤ 0.25 µg/mL | >32 | ≤ 0.25 µg/mL | 117 to 119 °C | ≤ 0.25 µg/mL |  | very potent | Activity against S. aureus (in words) [2]: very potent; Activity against C. neoformans (in words) [3]: very potent; Haemolysis (in words) (haemolytic activity): no haemolysis; Activity against A. baumannii (in words) [5]: very potent |
